Measured values from ChEMBL document CHEMBL1143729, “Biotransformation of polymethoxylated flavonoids: access to their 4'-O-demethylated metabolites” (J Nat Prod, 2007).

The compounds below were run on Aspergillus niger (assay: Inhibition of CYP450-mediated tangeretin demethylation in Aspergillus niger ATCC 9142 assessed as relative activity at 0.5 mM).

relative activity [%]	SMILES
0	CCCC(C(=O)OCCN(CC)CC)(c1ccccc1)c1ccccc1
10	Clc1ccc(COC(Cn2ccnc2)c2ccc(Cl)cc2Cl)c(Cl)c1 (centres undefined)
0	CC1=CC(=O)c2ccccc2C1=O
40	CC(C)(C(=O)c1cccnc1)c1cccnc1
